From ChEMBL document CHEMBL1133840, “Enols as potent antibacterial agents” (2001)
≈ marks a conversion by molar mass, not a printed value.

Tests used:
Assay type in all cases: functional
[1] = tested on: Escherichia coli; test: Evaluated for its antibacterial activity against Escherichia coli UC 6674
[2] = tested on: Klebsiella pneumoniae; test: Evaluated for its antibacterial activity against Klebsiella pneumoniae UC 12081
[3] = tested on: Haemophilus influenzae; test: Evaluated for its antibacterial activity against Haemophilus influenzae 30063
[4] = tested on: Staphylococcus epidermidis; test: Evaluated for its antibacterial activity against Staphylococcus epidermidis UC 12084
[5] = tested on: Pseudomonas aeruginosa; test: Evaluated for its antibacterial activity against Pseudomonas aeruginosa UC 6676
[6] = tested on: Staphylococcus aureus; test: Evaluated for its antibacterial activity against Staphylococcus aureus UC 9218
[7] = tested on: Streptococcus pneumoniae; test: Evaluated for its antibacterial activity against Streptococcus pneumoniae UC 9912
[8] = tested on: Enterococcus faecalis; test: Evaluated for its antibacterial activity against Enterococcus faecalis UC 9217
[9] = tested on: Staphylococcus aureus; test: Antibacterial activity against Staphylococcus aureus UC 9218 in the presence of 10% serum
[10] = tested on: Staphylococcus aureus; test: Antibacterial activity against Staphylococcus aureus UC 9218 in the presence of 0% serum
[11] = tested on: Staphylococcus aureus; test: Antibacterial activity against Staphylococcus aureus UC 9218 in the presence of 5% serum

SMILES | MIC [1] [µg/mL] | MIC [2] [µg/mL] | MIC [3] [µg/mL] | MIC [4] [µg/mL] | MIC [5] [µg/mL] | MIC [6] [µg/mL] | MIC [7] [µg/mL] | MIC [8] [µg/mL] | MIC [9] [µg/mL] | MIC [10] [µg/mL] | MIC [11] [µg/mL]
CCc1cccc2ccccc12 | > 128 | > 128 | > 128 | 128 (≈ 819 µM) | > 128 | 128 (≈ 819 µM) | 32 (≈ 205 µM) | 128 (≈ 819 µM) | > 128 | 128 | > 128
Cc1ccccc1NCCc1cccc(C(F)(F)F)c1 | > 128 | > 128 | 4 (≈ 14.3 µM) | 2 (≈ 7.16 µM) | > 128 | 4 (≈ 14.3 µM) | 1 (≈ 3.58 µM) | 2 (≈ 7.16 µM) | 32 | 4 | 16
O=C(CO)N(CCc1cccc(C(F)(F)F)c1)c1cccc2ccccc12 | > 128 | > 128 | > 128 | > 128 | > 128 | 32 (≈ 85.7 µM) | 32 (≈ 85.7 µM) | > 128 |  |  | 
c1ccc(-c2ccc(CCNc3cccc4ccccc34)cc2)cc1 | > 128 | > 128 | 64 (≈ 198 µM) | 8 (≈ 24.7 µM) | > 128 | 8 (≈ 24.7 µM) | 16 (≈ 49.5 µM) | 2 (≈ 6.18 µM) | 128 | 8 | 64
CC(=O)C(C#N)C(=O)N(CCc1cccc(C(F)(F)F)c1)c1cccc2ccccc12 (stereo not drawn) | > 128 | > 128 | > 128 | 4 (≈ 9.42 µM) | > 128 | 8 (≈ 18.8 µM) | 2 (≈ 4.71 µM) | 4 (≈ 9.42 µM) | 128 | 8 | 128
CC(=O)CC(=O)N(CCc1cccc(C(F)(F)F)c1)c1cccc2ccccc12 | > 128 | > 128 | > 128 | > 128 | > 128 | > 128 | 32 (≈ 80.1 µM) | > 128 |  |  | 
N#CCC(=O)N(CCc1cccc(C(F)(F)F)c1)c1cccc2ccccc12 | > 128 | > 128 | > 128 | > 128 | > 128 | > 128 | 16 (≈ 41.8 µM) | > 128 |  |  | 
CO/N=C(\C(=O)N[C@@H]1C(=O)N2C(C(=O)O)=C(COC(C)=O)CS[C@H]12)c1csc(N)n1 [CEFOTAXIME] | 0.06 (≈ 0.132 µM) | 0.06 (≈ 0.132 µM) | 0.015 (≈ 0.0329 µM) |  | 16 (≈ 35.1 µM) |  |  |  |  |  | 
CN[C@H](CC(C)C)C(=O)N[C@H]1C(=O)N[C@@H](CC(N)=O)C(=O)N[C@H]2C(=O)N[C@H]3C(=O)N[C@H](C(=O)N[C@H](C(=O)O)c4cc(O)cc(O)c4-c4cc3ccc4O)[C@H](O)c3ccc(c(Cl)c3)Oc3cc2cc(c3O[C@@H]2O[C@H](CO)[C@@H](O)[C@H](O)[C@H]2O[C@H]2C[C@](C)(N)[C@H](O)[C@H](C)O2)Oc2ccc(cc2Cl)[C@H]1O [VANCOMYCIN] |  |  |  |  |  |  | 0.25 (≈ 0.173 µM) | 1 (≈ 0.69 µM) |  |  | 

The next lines start with the values.

MIC [1] [µg/mL] | MIC [2] [µg/mL] | MIC [3] [µg/mL] | MIC [4] [µg/mL] | MIC [5] [µg/mL] | MIC [6] [µg/mL] | MIC [7] [µg/mL] | MIC [8] [µg/mL] | MIC [9] [µg/mL] | MIC [10] [µg/mL] | MIC [11] [µg/mL] | SMILES
> 128 | > 128 | > 128 | > 128 | > 128 | > 128 | > 128 | > 128 |  |  |  | CSCC(=O)N(CCc1cccc(C(F)(F)F)c1)c1cccc2ccccc12
> 128 | > 128 | 8 (≈ 17.6 µM) | 2 (≈ 4.41 µM) | > 128 | 2 (≈ 4.41 µM) | 8 (≈ 17.6 µM) | 4 (≈ 8.82 µM) | 64 | 2 | 16 | O=C(CC(=O)C(F)(F)F)N(CCc1cccc(C(F)(F)F)c1)c1cccc2ccccc12
> 128 | > 128 | 4 (≈ 12.7 µM) | 2 (≈ 6.34 µM) | > 128 | 4 (≈ 12.7 µM) | 2 (≈ 6.34 µM) | > 1 | 64 | 4 | 32 | FC(F)(F)c1cccc(CCNc2ccc3ccccc3c2)c1
> 128 | > 128 | 1 (≈ 3.16 µM) | 1 (≈ 3.16 µM) | > 128 | 2 (≈ 6.32 µM) | 2 (≈ 6.32 µM) | 1 (≈ 3.16 µM) | 64 | 2 | 16 | Clc1ccc(CCNc2cccc3ccccc23)c(Cl)c1
> 128 | > 128 | 32 (≈ 104 µM) | 16 (≈ 52.1 µM) | > 128 | 16 (≈ 52.1 µM) | 16 (≈ 52.1 µM) | 16 (≈ 52.1 µM) | 128 | 16 | 32 | COc1ccc(OC)c(CCNc2cccc3ccccc23)c1
> 128 | > 128 | > 128 | 128 (≈ 305 µM) | > 128 | 128 (≈ 305 µM) | 64 (≈ 153 µM) | > 128 |  |  |  | C[S+]([O-])CC(=O)N(CCc1cccc(C(F)(F)F)c1)c1cccc2ccccc12 (stereo not drawn)
> 128 | > 128 | 32 (≈ 106 µM) | 4 (≈ 13.3 µM) | > 128 | 2 (≈ 6.64 µM) | 8 (≈ 26.6 µM) | 2 (≈ 6.64 µM) |  | 2 |  | FC(F)(F)c1cccc(CNc2cccc3ccccc23)c1
